The values that follow come from PMC12990037, “Discovery of Two Structurally Distinct Classes of Inhibitors Targeting the Nuclease MUS81 and Enhancing Efficacy of Chemotherapy in Cancer Cells” (Journal of Medicinal Chemistry, 2026).

One data set deals with U2OS BIR-GFP cells. The data set can be described thus: I-SceI-based BIR repair reporter assay. In kind it is cell-based. The note with it: Homo sapiens, 72 h, normalized to DMSO. The method, then:
(§1) 3 MUS81 inhibitors suppress HR and BIR. (A) I-SceI-based BIR repair efficiency was measured in U2OS BIR-GFP cells treated with DMSO, two different siRNAs targeting MUS81, or the indicated concentrations of MU262 and MU876, and their control analogues for 72 h. The percentage of repair was normalized to the DMSO-treated control (D). n = 3. Error bars represent standard deviation (s.d.); ****p <0.0001 (unpaired, two-tailed t-test). […] (C,D) I-SceI-based HR (C) and NHEJ (D) repair efficiency was measured using U2OS DR-GFP and EJ5-GFP cells, respectively, following treatment with DMSO, MU262,MU876, or their control analogues for 72 h. The percentage of repair was normalized to the DMSO-treated control. n = 3. Error bars represent s.d.; *p <0.05, **p <0.01, ****p <0.0001 (unpaired, two-tailed t-test).
(§2) Reporter DR-GFP and […] U2OS cells along with BIR-GFP cells were transfected with 2.5 μg of I-SceI-expressing pCAGGS vector and subsequently treated with MUS81 inhibitors at the indicated concentrations. After transfection (72 h), cells were trypsinized and resuspended in 3% BSA in PBS. GFP fluorescence detection was carried out using a BD FACSVerse flow cytometer, and the data were analyzed with FlowJo software (BD Life Sciences). Data presented in the graph were normalized to the DMSO-treated sample.
In general terms: In a reporter assay the amount or activity of a reporter protein is the signal.

A further data set relates to U2OS DR-GFP cells. In words: I-SceI-based HR repair reporter assay. In kind it is cell-based. The note with it: Homo sapiens, 72 h. The method, then: as §1, §2
A further data set deals with EJ5-GFP cells. The data set can be described thus: I-SceI-based NHEJ repair reporter assay. The note with it: 72 h. In kind it is cell-based. On the procedure: as §1, §2
Data set [1] concerns U2OS cells. The data set can be described thus: Annexin V apoptotic assay. It counts as cell-based. Particulars: 3 days. The method, then:
(§3) Given these promising findings, we further investigated the specificity of MU262 and MU876 and potential short-term cytotoxicity. To mirror the treatment duration used in BIR and HR assays, U2OS cells were exposed to the inhibitors or siRNA for 3 days.
U2OS WT cells (300,000) were seeded in a 6-well plate, a subset of them was treated with either control siRNA or siRNA targeting MUS81. After adhesion, cells were treated with the respective inhibitors for 72 h during which CPT (100 μM, Sigma-Aldrich) was added for the last 2 h. Cells were harvested, washed in ice-cold PBS, and collected by centrifugation at 500g for 5 min. Cells were simultaneously stained with FITC-labeled annexin V antibody (556419, Becton Dickinson) and PI (5 μL) at room temperature for 15 min, protected from light. Stained cells were analyzed using a BD FACSVerse flow cytometer (Becton Dickinson) and FlowJo software (BD Life Sciences). At least 20,000 cells were used for each measurement, and experiments were performed in duplicates.

Data set [2] relates to U2OS cells. In words: EdU/PI cell cycle assay. In kind it is cell-based. The note with it: 72 h; for cell cycle progression: 0.5 μM; for cell cycle profile: 1 μM. On the procedure:
as §3
U2OS WT cells (300,000) were seeded in a 6-well plate; a subset of them was treated with either control siRNA or siRNA targeting MUS81. After adhesion, cells were treated with the respective inhibitors for 72 h during which CPT ([…], Sigma-Aldrich) was added for the last 16 h and 10 μM EdU (Sigma-Aldrich) was added for the last 1 h. Cells were then harvested and stained by using the Click-iT EdU Alexa Fluor 647 Flow Cytometry Assay Kit (Thermo Fisher Scientific). Finally, cells were resuspended in 1xPBS containing 5 μg/mL of propidium iodide (PI) and analyzed using a BD FACSVerse flow cytometer (Becton Dickinson) and FlowJo software (BD Life Sciences). At least 20,000 cells were used for each measurement, and experiments were performed in duplicates.

The subject of data set [3] is U2OS cells. The data set can be described thus: Colony formation assay (CFA). In kind it is cell-based. Particulars: 10–12 days. The method, then:
6 MUS81 inhibition induces persistent DNA damage leading to reduced cell survival. (A) U2OS cells were treated with DMSO, cisplatin as a positive control, control or MUS81-targeting siRNA, MU262, MU876, and their negative control counterparts at the indicated concentrations for 72 h. Representative images show staining of a DNA damage marker γH2AX in green with counterstaining of DAPI in blue. The concentration of all inhibitors shown in (A) is 2.5 μM. (B) DNA damage was assessed by quantifying γH2AX foci per nucleus from (A) using CellProfiller software. The graph represents percentage (%) of cells with ≥20 γH2AX foci per nucleus across different concentrations of inhibitors. n = 3; error bars represent s.d. (C) Indicated number of U2OS cells was transfected with a nontargeting siRNA (siCon) or MUS81-targeting siRNA (siMUS81) seeded for a CFA. […] (D) Quantification of (C), error bars represent s.d.; ****p <0.0001 (unpaired, two-tailed t-test). […] (F) Quantification of (E) using a nonlinear regression fitting model. n = 3. […] (H) Quantification of (G) using a nonlinear regression fitting model. n = 3.
Cells were trypsinized, plated at the desired density in 6-well plates for colony forming assay, and then incubated for 10 days. […] The colonies were then solubilized using 10% acetic acid solution, and absorbance was measured with a plate reader. […]

The next data set has as its system CAL51 MUS81^–/– cells. The data set can be described thus: Cell proliferation assay (CyQUANT), combination with cisplatin. In kind it is cell-based. The method, then: CAL51 WT, CAL51 MUS81^–/–, U2OS, and HEK293 cells were seeded in a 96-well plate and treated with the respective concentration of selected inhibitors. After incubation for 4–5 days, cells were harvested while the untreated control was still subconfluent. The plate was then incubated at −80 °C to achieve cell lysis. Cell proliferation was assessed using the CyQUANT Cell Proliferation Assay kit (Thermo Fisher Scientific) according to manufacturer’s instructions. […] was measured using a plate reader (Infinite F500, Tecan Austria GmbH).

Data set [4] deals with major cytochrome P450 isoforms. The data set can be described thus: Cytochrome P450 inhibition. In kind it is in vitro ADME.

In turn, `CCc1nn2c(O)c(-c3nc4ccccc4[nH]3)nnc2c1-c1ccc(F)cc1` [Compound 18, 3-(1H-Benzo[d]imidazole-2-yl)-7-ethyl-8-(4-fluorophenyl)pyrazolo[5,1-c][1,2,4]triazin-4-ol] showed an IC50 with U2OS BIR-GFP cells of 1530 nM. The molecule also yielded an IC50 in the data set with U2OS DR-GFP cells of 500 to 1000 nM. Also, in the data set on EJ5-GFP cells, the “effect on NHEJ” value is given as “no negative effect”. Besides, the “apoptosis (Annexin V staining)” value with U2OS cells [1] is “no increase in apoptosis”. Besides, in the data set with U2OS cells [2], the cell cycle progression entry was “neither MU262 and MU876 affected the cell cycle progression”; the cell cycle profile result is listed as “mild increase in the S phase”. The clonogenic cell survival result in the data set on U2OS cells [3] is recorded as “significantly decreased cell survival”. The sensitization to cisplatin entry in the data set on CAL51 MUS81^–/– cells was “no additional sensitization”. For the same molecule, the “inhibition of major cytochrome P450 isoforms” value in data set [4] is listed as “do not significantly inhibit major cytochrome P450 isoforms”.
In the case of `Cc1cc(=O)[nH]c(-n2nc(-c3ccccc3)cc2NC(=O)c2cc(-c3ccccc3)on2)n1` [Compound 32, N-(1-(4-Methyl-6-oxo-1,6-dihydropyrimidin-2-yl)-3-phenyl-1H-pyrazol-5-yl)-5-phenylisoxazole-3-carboxamide], the IC50 was 240 nM with U2OS BIR-GFP cells and 500 to 1000 nM with U2OS DR-GFP cells. For the same molecule, the “effect on NHEJ” value with EJ5-GFP cells was “no negative effect”. In addition, the “apoptosis (Annexin V staining)” value with U2OS cells [1] is “no increase in apoptosis”. For the same molecule, the cell cycle progression result in the data set on U2OS cells [2] is “neither MU262 and MU876 affected the cell cycle progression”. Besides, in the data set with U2OS cells [2], the cell cycle profile result was “mild increase in the S phase”. The clonogenic cell survival entry in the data set with U2OS cells [3] is listed as “significantly decreased cell survival”. Also, in the data set with CAL51 MUS81^–/– cells, the sensitization to cisplatin entry is “no additional sensitization”. For the same molecule, the “inhibition of major cytochrome P450 isoforms” value in data set [4] is on record as “do not significantly inhibit major cytochrome P450 isoforms”.

For orientation: IC50 means the concentration that inhibits the measured activity by half.
